Results as given in patent publication US20060270727A1, “Small molecule therapeutics and uses therefor” (priority 2005, published 2006).
Read-outs that look alike come from different tables or passages of the source.

Tests used:
[1] = test system: sticky DNA in plasmid pRW4886, two tracts of (GAA)176; test: Sticky DNA disruption, EcoNI digestion and agarose gel; assay type: biochemical; conditions: 37° C., 1 hr
Description: Influence of Polyamides on Sticky DNA Conformation. Plasmid pRW4886, which contains two tracts of (GAA)176 (SEQ ID NO: ______) in a direct repeat orientation (Vetcher et al., 2002b, Id)., and forms sticky DNA, was treated with polyamides at concentrations of 0-50 μM at 37° C. for 1 hr. Restriction digestion with EcoNI following the polyamide incubation enabled visualization of the presence or absence of an EcoNI cleaved sticky DNA band that runs with decreased mobility compared to the linearized plasmid on 1% agarose gels. Quantitation was by densitometric analysis using Fluor Chem version 3.04 (Alpha Innotech Corp).
The capacity of sequence-specific polyamides to disrupt the intramolecular sticky DNA structure formed by GAA repeat tracts was investigated. Plasmids harboring the sticky DNA structure are visualized by gel electrophoresis after restriction endonuclease cleavage, by methods well known in the art. […] Plasmid pRW4886, which contains two tracts of (GAA)176 (SEQ ID NO: ______) in a direct repeat orientation (Vetcher et al., 2002b, Id.), was incubated with each of polyamides FA1, FA2, FA3 and FA4 at concentrations ranging from 0-50 μM. The polyamide-bound DNA was then digested with EcoNI and subjected to electrophoresis on 1% agarose gels to determine the amount of EcoNI cleaved sticky DNA retarded band present. Incubation of pRW4886 DNA with FA3 shifted the equilibrium from a maximum amount of sticky DNA to a complete loss of the EcoNI cleaved sticky DNA retarded band at a concentration of 50 nM. […] For FA1, a 1 μM concentration was needed to dissociate the DNA-DNA structure-forming region. […] Since sticky DNA inhibits transcription (Ohshima et al., Id.; Sakamoto et al., 2001, J. Biol. Chem. 276:27171-27177), and since the polyamides destabilize this conformation by shifting the structural equilibrium to duplex B-type DNA, it is highly likely that the increases in frataxin mRNA observed with polyamide FA1 are due to this structural transition.

[2] = target: GAA·TTC duplex repeats in the frataxin gene; radiolabeled PCR product containing a (GAA)6 sequence; test: Quantitative DNase I footprinting on (GAA)6 DNA; assay type: binding; conditions: for sequence specificity: DNase I footprinting; for binding affinity for duplex GAA•TTC repeat DNA, in words: compared with FA1
Text: Targeting GAA Repeat DNA with Polyamides. β-Alanine linked polyamides FA1-FA6 were synthesized (see Example 6) with sequence, theoretical DNA binding site, theoretical DNA binding site SEQ ID NO: ______) and binding affinity as shown in Table 1. […] Those of skill in the art will recognize that this value may be an underestimation of the affinity of this molecule for GAA repeat DNA since the KD measurements are limited by a minimum DNA concentration of ˜2 pM in the binding reaction. Radiolabeling of nucleic acid incorporated γ^32P ATP and polynucleotide kinase used standard procedures.
Polyamlde Synthesis and Characterization. Polyamides were synthesized by solid phase methods (Urbach & Dervan, Id.; Baird & Dervan, 1996, J. Am. Chem. Soc. 118:6141-6146) and their identity and purity verified by MALDI-TOF MS and analytical HPLC, using methods well known in the art. Fluorescent conjugates were prepared by coupling BODIPY (Molecular Probes) to the carboxyl-terminus (Best et al., 2003, Proc. Natl. Acad. Sci. U.S.A. 100:12063-12068). Binding affinities for match and mismatch sites were determined by quantitative DNase I footprinting (Trauger & Dervan, Id). A plasmid harboring six GAA repeats was constructed by cloning the oligonucleotide
in the pCR2.1 TOPO vector (Invitrogen, Calif.), and a 117 bp singly end-labeled PCR product was generated from this plasmid with the following oligonucleotides:
where the second oligonucleotide was labeled with γ-^32P ATP and polynucleotide kinase, using standard procedures, to generate a PCR product labeled on the GAA strand. A 204 bp singly end-labeled PCR product was derived from plasmid pMP142 DNA, containing 33 GAA repeats (Ohshima et al., Id.), with following oligonucleotides: […]

[3] = test system: mismatch DNA sequence 5′-GGAGGAGGTGGAGGAGGA-3′ from the erbB2 (Her2-neu) promoter; test: DNase I footprinting on mismatch DNA; assay type: binding, human; conditions: polyamide concentrations up to 100 nM
Description: Two additional molecules, FA5 [(ImPyβ)4ImβDp] and FA6 [(ImPyβ)5ImβDp], were synthesized in order to target longer regions of GAA repeats in duplex DNA; i.e., (AAG)5 (SEQ ID NO: ______) and (AAG)6 (SEQ ID NO: ______) respectively. […] As another test for sequence specificity, footprinting experiments with FA1 and FA3 and a radiolabeled DNA fragment containing a mismatch DNA sequence 5′-GGAGGAGGTGGAGGAGGA-3′ (SEQ ID NO: ______) were performed.
The first oligonucleotide shown was radiolabeled as above to generate a PCR product labeled on the GAA strand. A 150 bp PCR product containing a (GGA•TCC)6 mismatch sequence was derived from the erbB2 (Her2-neu) promoter in human genomic DNA with the following oligonucleotides: […]

[4] = test system: frataxin mRNA in GM15850 FRDA lymphoid cell line; test: qRT-PCR of frataxin mRNA, FRDA cell line; assay type: cell-based, human; conditions: GM15850 FRDA cell line; 7 days incubation
Text: GAA Specific Polyamides Up Regulate Frataxin mRNA and Protein. To assess whether polyamides alleviate transcription inhibition caused by expanded GAA repeats in the frataxin gene, quantitative real time/reverse transcriptase PCR (qRT-PCR) was used to monitor frataxin mRNA levels in the GM15850 and GM15851 lymphoid cell lines described above; levels of glyceraldehyde 3-phosphate dehydrogenase (GAPDH) mRNA were used as an internal control for each RNA sample; see Example 8. No differences in GAPDH were found between the two cell lines. […] No changes in frataxin mRNA levels were observed on shorter incubation times.
Cell Culture. Epstein Barr virus transformed lymphoblast cell lines GM15850 from a FRDA patient (alleles with 650 and 1030 GAA repeats in the frataxin gene, from the Coriell Cell Repository, Camden, N.J.), and GM15851 from an unaffected sibling (normal range of repeats), were propagated in RMPI 1640 medium with 2 mM L-glutamine and 15% fetal bovine serum at 37° C. in 5% CO2. Cell growth and morphology were monitored by phase contrast microscopy and viability by trypan blue exclusion and an ATP assay (ApoSENSOR™, BioVision). Polyamides were added directly to the culture medium in PBS. Nuclear localization of the polyamides was verified by deconvolution microscopy, by methods well known in the art (see e.g., Dudouet et al., Chem. Biol., 2003, 10: 859-867).
Real-Time Quantitative RT-PCR. Real-time quantitative RT-PCR (qRT-PCR) analysis was performed essentially as previously described (Chuma, et al., 2003, Hepatology 37:198-207), using the following primers for the frataxin gene: […]
RNA was standardized by quantification of GAPDH mRNA (Pattyn et al., 2003, Nucleic Acids Res. 31:122-123), and all values are expressed relative to GAPDH. qRT-PCR was performed using iScript One-Step RT-PCR kit with SYBR green (Biorad). Statistical analysis was performed on three independent quantitative RT-PCR experiments for each RNA sample.

[5] = quantitative DNase I footprinting, mean and standard deviation, minimum of two determinations, read-out: Binding affinity (KD)

Q: Which “concentration needed to affect or dissociate sticky DNA” value [1] does the source give for `CN(C)CCCNC(=O)CCNC(=O)c1cc(NC(=O)CCNC(=O)c2nc(NC(=O)c3nc(NC(=O)CCNC(=O)c4cc(NC(=O)c5nc(NC(=O)CCNC(=O)c6cc(NC(=O)c7nccn7C)cn6C)cn5C)cn4C)cn3C)cn2C)cn1C` [FA4, (ImPyβ)2ImImβPyβDp] here?
A: Its value is at least 5 µM.

Q: And the Kd ([2]; (GAA)6 DNA, values in text, read-out: apparent dissociation constant (KD))?
A: Its Kd is 2 nM.

Q: And the “binding affinity, times less than FA3” value ([2]; FA4 vs FA3)?
A: Its value is about 1000 times.

Q: And the “reduction of binding affinity vs match polyamide” value ([2]; mismatch vs match polyamide (FA2 vs FA1, FA4 vs FA3))?
A: The value was “three orders of magnitude”.

Q: Which binding affinity ([2]; six bp sequence 5′-AAGAAG-3′) does the source give for `CN(C)CCCNC(=O)CCNC(=O)c1nc(NC(=O)CCNC(=O)c2cc(NC(=O)c3nccn3C)cn2C)cn1C` [ImPyβImβDp] here?
A: The binding affinity was “low μM”.

Q: For `CN(C)CCCNC(=O)CCNC(=O)c1nc(NC(=O)CCNC(=O)c2cc(NC(=O)c3nc(NC(=O)CCNC(=O)c4cc(NC(=O)c5nc(NC(=O)CCNC(=O)c6cc(NC(=O)c7nc(NC(=O)CCNC(=O)c8cc(NC(=O)c9nc(NC(=O)CCNC(=O)c%10cc(NC(=O)c%11nccn%11C)cn%10C)cn9C)cn8C)cn7C)cn6C)cn5C)cn4C)cn3C)cn2C)cn1C` [FA6, (ImPyβ)5ImβDp], which sequence specificity [2] is on record?
A: The sequence specificity was “less specific than FA1 or FA3”.

Q: And the “binding affinity for duplex GAA•TTC repeat DNA, in words” value [2]?
A: The value was “comparable to that of FA1”.

Q: What about the Kd [2, 5] of the same compound?
A: The Kd was 0.22 ± 0.08 nM.

Q: How did the “concentration for complete loss of the EcoNI cleaved sticky DNA retarded band” value [1] turn out when `CN(C)CCCNC(=O)CCNC(=O)c1nc(NC(=O)CCNC(=O)c2cc(NC(=O)c3nc(NC(=O)CCNC(=O)c4cc(NC(=O)c5nc(NC(=O)CCNC(=O)c6cc(NC(=O)c7nccn7C)cn6C)cn5C)cn4C)cn3C)cn2C)cn1C` [FA3, (ImPyβ)3ImβDp] was run?
A: The value was 50 nM.

Q: And the “binding to mismatch DNA sequence” value [3]?
A: Its value is “Neither FA1 nor FA3 bound this DNA sequence”.

Q: What about the “effect on frataxin mRNA levels, in words” value [4] of the same compound?
A: Its value is “did not increase frataxin mRNA levels”.

Q: What about the Kd ([2]; footprinting at low (~2 pM) DNA concentrations, may underestimate affinity, read-out: KD) of the same compound?
A: The Kd was about 0.003 nM.

Q: What about the Kd [2, 5] of the same compound?
A: The Kd was 0.003 ± 0.001 nM.

Q: Which sequence specificity [2] does the source give for `CN(C)CCCNC(=O)CCNC(=O)c1nc(NC(=O)CCNC(=O)c2cc(NC(=O)c3nc(NC(=O)CCNC(=O)c4cc(NC(=O)c5nc(NC(=O)CCNC(=O)c6cc(NC(=O)c7nc(NC(=O)CCNC(=O)c8cc(NC(=O)c9nccn9C)cn8C)cn7C)cn6C)cn5C)cn4C)cn3C)cn2C)cn1C` [FA5, (ImPyβ)4ImβDp] here?
A: Its sequence specificity is “less specific than FA1 or FA3”.

Q: And the “binding affinity for duplex GAA•TTC repeat DNA, in words” value [2]?
A: The value was “comparable to that of FA1”.

Q: And the Kd [2, 5]?
A: Its Kd is 0.2 ± 0.02 nM.
